Bounds are passed on as bounds.

The test system of one test is N27 rat dopaminergic neural cells. Description: MTT assay in N27 rat dopaminergic neural cells: inhibition of RSL3-induced cell death (ferroptosis). The class given is cell-based. Conditions: Rattus norvegicus, N27, 24 h, ferroptosis induced by 0.5 μM RSL3, 24 hours, viability by MTT. How it is done: MTT Assay in N27 Rat Dopaminergic Neural Cells
N27 rat dopaminergic neural cells (Millipore, SCC048) were cultured in RPMI-1640 media (Wisent, 350-000) supplemented with 1×GlutaMAX (Gibco, 35050-061), 10% FBS (embryonic stem cell qualified; Wisent, 920-040), and 1× Penicillin-Streptomycin (Wisent, 450-201). Cells were grown in humidified tissue culture incubator at 37° C. with 5% CO2, for up to 10 passages. To evaluate the ability of test compounds to inhibit RSL3-induced cell death, N27 cells were seeded in clear 96-well tissue culture plates (Sarstedt, 83.3924) at a density of 15,000 cells/well. On the next day, the medium was changed to fresh complete RPMI-1640. Eight-point dilution series of test compounds were added to the cells. Then, ferroptosis was induced by addition of 0.5 μM RSL3 (vehicle-treated cells served as control). Ferrostatin-1 (Fer-1) was included in each assay as control inhibitor of ferroptosis. Plates were incubated for 24 hours at 37° C. in a tissue culture incubator, then cell viability was determined by MTT assay. Briefly, Thiazolyl Blue Tetrazolium Bromide [3-(4,5-dimethylthiazol-2-yl)-2,5-diphenyltetrazolium bromide or “MTT” ] (Sigma) stock solution (5 mg/mL in PBS, sterilized by filtration) was diluted 1:1 with complete growth medium, and added on the cells to a final concentration of 0.5 mg/mL. Cells were incubated with MTT for 4 hours at 37° C., protected from light, in a humidified, 5% CO2 atmosphere. Medium was then completely removed from the wells by gentle aspiration and converted MTT formazan crystals were dissolved in 150 μL of DMSO. Absorbance of converted dye was measured at 595 nm with background subtraction at 690 nm using the BioTek Cytation5 Microplate Reader. Blank reading (absorbance from wells containing media and vehicle only, no cells) was removed from all sample wells. Viability was calculated as a percentage of control cells (vehicle-treated cells were set as 100% viability). Dose-response curves were drawn and IC50 values were calculated using GraphPad Prism software, version 7.
Regarding `CC1(Nc2nc(-c3ccc(F)cc3)ccc2NC2CCC2)CCOC1` (stereo not drawn) [Compound P-54, N^3-cyclobutyl-6-(4-fluorophenyl)-N^2-(3-methyltetrahydrofuran-3-yl)pyridine-2,3-diamine], the IC50 stood at 3 nM.
In the case of `CCCCCc1nc(NC2CCOC2)c2c(n1)OCCN2` (stereo not drawn) [Compound B-604, 2-pentyl-N-tetrahydrofuran-3-yl-6,7-dihydro-5H-pyrimido[4,5-b][1,4]oxazin-4-amine], the IC50 worked out at 388 nM.
Still for that read-out and setting: for `CCCCC(=O)c1cc2c(c(N3CCCC3=O)c1)NCCC2` [Compound Q-979, 1-(6-pentanoyl-1,2,3,4-tetrahydroquinolin-8-yl)pyrrolidin-2-one] the value was 1150 nM.
The same measure, in the same setting: for `c1nc2c(c(NC3CCCC3)n1)NCCC2` [Compound C-84, N-cyclopentyl-5,6,7,8-tetrahydropyrido[3,2-d]pyrimidin-4-amine] the value was 646 nM; for `CCC(C)Nc1ccc(-c2ccncc2)nc1NC1CCCC1` (stereo not drawn) [Compound H-76, N^2-cyclopentyl-6-(4-pyridyl)-N^3-sec-butyl-pyridine-2,3-diamine], 6 nM.
Still for that read-out and setting: as for `COc1ccc(-c2ccc(NC3COC3)c(NC3CCCC3)n2)cc1` [Compound H-87, N^2-cyclopentyl-6-(4-methoxyphenyl)-N^3-(oxetan-3-yl)pyridine-2,3-diamine], the figure is 3 nM.
`CCCCNc1nc2c(c(NC3CCCC3)n1)NCCC2` [Compound B-433, N2-Butyl-N4-cyclopentyl-5,6,7,8-tetrahydropyrido[3,2-d]pyrimidine-2,4-diamine] gave an IC50 of 726 nM.
On the same count and under the same terms, for `CCC(C)Nc1cnc(-c2cccnc2)nc1NC1CCCC1` (stereo not drawn) [Compound F-78, N^4-cyclopentyl-2-(3-pyridyl)-N^5-sec-butyl-pyrimidine-4,5-diamine] the value was 89 nM.
Take `CCCCC(=O)c1cc(F)c2c(c1)CCCN2` [Compound B-132]: the half-inhibitory concentration (IC50) was > 3000 nM.
The same measure, in the same setting: as for `CC(C)(C)C(=O)c1nc2c(c(NC3CCCC3)n1)NCCC2` [Compound A-35, 1-[4-(cyclopentylamino)-5,6,7,8-tetrahydropyrido[3,2-d]pyrimidin-2-yl]-2,2-dimethyl-propan-1-one], the figure is 248 nM; as for `CCCCC(=O)c1cc2c(c(NC3CCOC3)c1)NCCC2` (stereo not drawn) [Compound Q-879, 1-[8-(tetrahydrofuran-3-ylamino)-1,2,3,4-tetrahydroquinolin-6-yl]pentan-1-one], 16.8 nM.
`O=C(c1ccccc1)c1nc2c(c(NC3CCCC3)n1)NCCC2` [Compound A-16, [4-(cyclopentylamino)-5,6,7,8-tetrahydropyrido[3,2-d]pyrimidin-2-yl]-phenyl-methanone] gave an IC50 of 285 nM.
On the same count and under the same terms, for `CCCCCc1nc2c(c(NC3CCCC3)n1)NCCC2` [Compound B-349, N-Cyclopentyl-2-pentyl-5,6,7,8-tetrahydropyrido[3,2-d]pyrimidin-4-amine] the value was 170 nM; for `CCC(C)Nc1cnc(-c2cncnc2)nc1NC1CCCC1` (stereo not drawn) [Compound F-81, N^4-cyclopentyl-2-pyrimidin-5-yl-N^5-sec-butyl-pyrimidine-4,5-diamine], 121 nM.
For the compound `CC1(Nc2nc(-c3ccccn3)ccc2NC2CCOC2)CCOC1` [Compound L-23, N^2-(3-methyltetrahydrofuran-3-yl)-6-(2-pyridyl)-N^3-tetrahydrofuran-3-yl-pyridine-2,3-diamine], the IC50 is 141 nM.
On the same count and under the same terms, for `c1ccc(-c2cn(-c3nc4c(c(NC5CCCC5)n3)NCCC4)nn2)cc1` [Compound A-31, N-cyclopentyl-2-(4-phenyltriazol-1-yl)-5,6,7,8-tetrahydropyrido[3,2-d]pyrimidin-4-amine] the value was 21 nM; for `CCCCC(=O)c1cc2c(c(-c3ccncc3)c1)NCCC2` [Compound Q-950, 1-[8-(4-pyridyl)-1,2,3,4-tetrahydroquinolin-6-yl]pentan-1-one], > 3000 nM; for `CCCCCc1cc2c(c(Nc3ccccn3)c1)NCCC2` [Compound B-308], 18 nM.
For the compound `CCCCCc1ccc(NC(C)CC)c(NC2CCCC2)n1` (stereo not drawn) [Compound H-72, N^2-cyclopentyl-6-pentyl-N^3-sec-butyl-pyridine-2,3-diamine], inhibition was half-maximal at 6 nM (IC50).
The same measure, in the same setting: as for `CC1(Nc2nc(-c3ccncc3)nc3c2NCCC3)CCOC1` (stereo not drawn) [Compound P-71, N-(3-methyltetrahydrofuran-3-yl)-2-(4-pyridyl)-5,6,7,8-tetrahydropyrido[3,2-d]pyrimidin-4-amine], the figure is 463 nM; as for `CCC/C=C/c1nc(NC2CCCC2)c2c(n1)OCCN2` [Compound B-710, N-cyclopentyl-2-[(E)-pent-1-enyl]-6,7-dihydro-5H-pyrimido[4,5-b][1,4]oxazin-4-amine], 22 nM; as for `CCCCC(=O)c1cc(N)c2c(c1)CCCN2S(=O)(=O)CC(C)C` [Compound B-060], 4020 nM.
The same measure, in the same setting: for `CCCCC(OC)c1cc2c(c(Nc3ccccn3)c1)NCCC2` (stereo not drawn) [Compound B-397, 6-(1-methoxypentyl)-N-(2-pyridyl)-1,2,3,4-tetrahydroquinolin-8-amine] the value was 70 nM; for `CC(C)(C)Nc1ccc(-c2ccncc2)nc1NC1CCCC1` [Compound L-04, N^3-tert-butyl-N^2-cyclopentyl-6-(4-pyridyl)pyridine-2,3-diamine], 5 nM; for `CCCCC(=O)c1nc2c(c(N3CCCC3)n1)NCCC2` [Compound A-18, 1-(4-pyrrolidin-1-yl-5,6,7,8-tetrahydropyrido[3,2-d]pyrimidin-2-yl)pentan-1-one], 217 nM.
Same read-out and setting: for `CC(C)=Cc1nc(C)nc(NC2CCCC2)c1N` [Compound F-99, N^4-cyclopentyl-2-methyl-6-(2-methylprop-1-enyl)pyrimidine-4,5-diamine] the value was > 625 nM; for `Cc1ccc(-c2nc(NC3CCCC3)c3c(n2)C(=O)N(C)C(C)(C)N3)cc1` [Compound K-36, 8-(cyclopentylamino)-2,2,3-trimethyl-6-(p-tolyl)-1H-pyrimido[5,4-d]pyrimidin-4-one], 525 nM.
As for `c1ncc(-c2ncc(NC3COC3)c(NC3CCCC3)n2)cn1` [Compound F-82, N^4-cyclopentyl-N^5-(oxetan-3-yl)-2-pyrimidin-5-yl-pyrimidine-4,5-diamine], the IC50 is > 625 nM.

Still in this test, the particulars now being: Rattus norvegicus, N27, 24 h, ferroptosis induced by 0.5 μM RSL3, 24 hours, viability by MTT, cell unit uM.
On to `CNC(=O)c1nc(-c2ccc(C)cc2)nc2c1NC(C)(C)N2C1CCCC1` [Compound K-34], for which the IC50 is > 10000 nM.

The same test, now with this note: ferroptosis induced by 0.5 μM RSL3, 24 hours, viability by MTT.
The compound `CCCCCc1nc2c(c(NC3CCCC3)n1)NCCC2` [Compound A-63, N-cyclopentyl-2-pentyl-5,6,7,8-tetrahydropyrido[3,2-d]pyrimidin-4-amine] showed an IC50 of 313 nM.

Source of the values: patent US20220144826A1, “Heteroaromatic and Heterobicyclic Aromatic Derivatives for the Treatment of Ferroptosis-Related Disorders” (COLLABORATIVE MEDICINAL DEVELOPMENT, LLC, priority 2019, published 2022).
